# How the values were obtained:
# [1] = tested on: Rhinovirus-3(HRV-3); test: Therapeutic administration: drug added after viral infection of adherent HeLa cells, protection from CPE; type: cell-based; details: drug 100 ng/ml added 0.5 h after virus (about 100 TCID50), 33° C., three days, FIG. 2
# Method: (§1) HeLa cells (self-preserved in the laboratory)
# (§2) Rhinovirus-3(HRV-3) (ATCC: VR-1113)
# Method: 500,000 cells were added into each well, incubated at 33° C. overnight for adherence, then viral dose at TCID50 value of about 100 was added, the culture medium was removed by absorption after 0.5 h, the drug was added into a 12-well plate at a concentration of 100 ng/ml, the total volume of the reaction system was 2 ml. After three days, when the virus control group presented 100% cytophagocytesis (CPE), the effects of the drug for preventing cells from being phagocytized were observed.
# [2] = tested on: rhinovirus; test: Ex vivo anti-rhinovirus screening: ACh-induced tension of rabbit tracheal rings exposed to rhinovirus; details: for Tension, average: drug 100 μg/ml plus rhinovirus, rabbit tracheal rings
# [3] = tested on: Rhinovirus-3(HRV-3); test: Preventive administration: drug pre-mixed with virus, protection of HeLa cells from CPE; type: cell-based; details: drug 100 ng/ml, virus about 100 TCID50, 33° C., three days, FIG. 1
# Method: as §1, §2
# Principle: the drug and the virus were pre-mixed and incubated to block the procedure of viral uncoating and invasion into cells.
# Methods: the drug at a concentration of 100 ng/ml was placed into a 12-well plate, then viral dose at TCID50 value of about 100 was added, after 0.5 h, 500,000 cells were added into each well, and incubated at 33° C. After three days, when the control group presented 100% cytopathic effect (CPE), the effects of the drug for preventing cells from being phagocytized were observed, and expressed as cell protection rate (%).
compound,measurement,setting,value
"CCOC(=O)c1ccc(OCCN2CCN(c3cc(Cl)nnc3Cl)CC2)nc1 [Example 31, 6-{2-[4-(3,6-dichloro-pyridazin-4-yl)-piperazin-1-yl]-ethoxy}-nicotinic acid ethyl ester]",effects of the drug for preventing cells from being phagocytized,[1],better effects
same,"Tension, average",[2]; Ach concentration (log M) −3,1.95 g
same,"Tension, average",[2]; Ach concentration (log M) −3.7,1.86 g
same,"Tension, average",[2]; Ach concentration (log M) −4,1.72 g
same,"Tension, average",[2]; Ach concentration (log M) −4.3,1.54 g
same,"Tension, average",[2]; Ach concentration (log M) −4.7,1.30 g
same,"Tension, average",[2]; Ach concentration (log M) −5,1.00 g
same,"Tension, average",[2]; Ach concentration (log M) −5.3,0.73 g
same,"Tension, average",[2]; Ach concentration (log M) −5.7,0.35 g
same,"Tension, average",[2]; Ach concentration (log M) −6,0.11 g
same,"Tension, average",[2]; Ach concentration (log M) −7,0.00 g
same,effect on the rhinovirus-caused excessive increase of Ach-induced tracheal smooth muscular tension,"[2]; drug 100 μg/ml, FIG. 3",obviously inhibit the excessive increase of Ach-induced tracheal smooth muscular tension caused by rhinovirus
same,"effects of the drug for preventing cells from being phagocytized, cell protection rate",[3],better effects
"Cc1cccc(C)c1OCCN1CCN(c2cc(Cl)nnc2Cl)CC1 [Example 4, 3,6-dichloro-4-{4-[2-(2,6-dimethyl-phenoxyethyl)]-piperazin-1-yl}pyridazine]","effects of the drug for preventing cells from being phagocytized, cell protection rate",[3],better effects
"COC(=O)c1ccc(OCCN2CCN(c3cc(Cl)nnc3Cl)CC2)nc1 [Example 32, 6-{2-[4-(3,6-dichloropyridazin-4-yl)piperazin-1-yl]-ethoxy}-nicotinic acid methyl ester]","effects of the drug for preventing cells from being phagocytized, cell protection rate",[3],better effects
"4-{2-[4-(3,6-dichloropyridazin-4-yl)-piperazin]-1-yl)-ethoxy]-benzoic acid isopropyl ester [Example 13]","effects of the drug for preventing cells from being phagocytized, cell protection rate",[3],better effects

# Reference: patent publication US8410105B2, “Pyridazinyl amine derivatives, the use thereof in the preparation of picorna virus inhibitors” (Institute of Pharmacology and Toxicology Academy of …, priority 2005, dated 2013)
